How the values were obtained:
Assay in all cases: biochemical
Parameters in all cases: kinase selectivity panel, activity as per cent of control, single concentration in duplicate
Conditions in all cases: read-out: % of control remaining
CDK1/cyclinB(h) = CDK1/cyclinB(h) (Homo sapiens, UniProt P06493)
Description: (§1) We next assessed selectivity of MS67 against 22 protein methyltransferases (table S2) and a broad panel of common drug targets including 45 kinases (table S3) and 44 G protein–coupled receptors (GPCR), ion channels, and transporters (table S4). […] We subsequently determined that MS67 had moderate binding affinity (Ki = 1.0 ± 0.8 μM) to Sigma 2 receptor (fig. S10).

CHK1(h) = target: T1, CHK1(h) (Homo sapiens, UniProt O14757)
T1 construct: gene CHEK1
Description: as §1

CHK2(h) = target: T2, CHK2(h) (Homo sapiens, UniProt O96017)
T2 construct: gene CHEK2
Description: as §1

CaMKIIα(h) = target: T3, CaMKIIα(h) (Homo sapiens, UniProt Q9UQM7)
T3 construct: gene CAMK2A
Description: as §1

EGFR(h) = EGFR(h) (Homo sapiens, UniProt P00533)
Description: as §1

EphA2(h) = EphA2(h) (Homo sapiens, UniProt P29317)
Description: as §1

EphA3(h) = EphA3(h) (Homo sapiens, UniProt P29320)
Description: as §1

EphB4(h) = EphB4(h) (Homo sapiens, UniProt P54760)
Description: as §1

FGFR1(h) = FGFR1(h) (Homo sapiens, UniProt P11362)
Description: as §1

FGFR2(h) = FGFR2(h) (Homo sapiens, UniProt P21802)
Description: as §1

IKKα(h) = target: T4, IKKα(h) (Homo sapiens, UniProt O15111)
T4 construct: gene CHUK
Description: as §1

IR(h) = target: T5, IR(h) (Homo sapiens, UniProt P06213)
T5 construct: gene INSR
Description: as §1

JAK3(h) = JAK3(h) (Homo sapiens, UniProt P52333)
Description: as §1

JNK1α1(h) = target: T6, JNK1α1(h) (Homo sapiens, UniProt P45983)
T6 construct: gene MAPK8; isoform alpha1
Description: as §1

MAPKAP-K2(h) = target: T7, MAPKAP-K2(h) (Homo sapiens, UniProt P49137)
T7 construct: gene MAPKAPK2
Description: as §1

Met(h) = Met(h) (Homo sapiens, UniProt P08581)
Description: as §1

PAK2(h) = PAK2(h) (Homo sapiens, UniProt Q13177)
Description: as §1

PAK4(h) = PAK4(h) (Homo sapiens, UniProt O96013)
Description: as §1

PDK1(h) = target: T8, PDK1(h) (Homo sapiens, UniProt O15530)
T8 construct: gene PDPK1
Description: as §1

PKCβII(h) = target: T9, PKCβII(h) (Homo sapiens, UniProt P05771)
T9 construct: gene PRKCB; isoform betaII
Description: as §1

Pim-2(h) = target: T10, Pim-2(h) (Homo sapiens, UniProt Q9P1W9)
T10 construct: gene PIM2
Description: as §1

SIK(h) = target: T11, SIK(h) (Homo sapiens, UniProt P57059)
T11 construct: gene SIK1
Description: as §1

TAO2(h) = target: T12, TAO2(h) (Homo sapiens, UniProt Q9UL54)
T12 construct: gene TAOK2
Description: as §1

TrkA(h) = target: T13, TrkA(h) (Homo sapiens, UniProt P04629)
T13 construct: gene NTRK1
Description: as §1

cSRC(h) = target: T14, cSRC(h) (Homo sapiens, UniProt P12931)
T14 construct: gene SRC
Description: as §1

PAK4(h), sequence (O96013 whole entry): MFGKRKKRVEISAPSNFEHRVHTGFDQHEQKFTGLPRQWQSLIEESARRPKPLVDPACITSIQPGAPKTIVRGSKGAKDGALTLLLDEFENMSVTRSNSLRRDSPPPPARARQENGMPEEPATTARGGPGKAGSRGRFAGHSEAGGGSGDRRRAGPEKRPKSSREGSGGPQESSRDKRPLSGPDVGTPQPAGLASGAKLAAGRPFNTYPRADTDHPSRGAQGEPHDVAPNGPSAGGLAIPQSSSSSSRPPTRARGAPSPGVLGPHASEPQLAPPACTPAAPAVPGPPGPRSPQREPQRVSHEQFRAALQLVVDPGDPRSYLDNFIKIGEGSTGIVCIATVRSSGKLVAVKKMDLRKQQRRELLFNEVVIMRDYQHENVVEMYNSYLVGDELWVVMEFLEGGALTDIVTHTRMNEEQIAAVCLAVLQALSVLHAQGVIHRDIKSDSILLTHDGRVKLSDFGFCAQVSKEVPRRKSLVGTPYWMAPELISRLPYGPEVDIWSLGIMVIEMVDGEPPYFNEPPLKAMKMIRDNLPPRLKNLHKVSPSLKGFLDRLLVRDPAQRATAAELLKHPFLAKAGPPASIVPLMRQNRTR
PAK2(h), sequence (Q13177 whole entry): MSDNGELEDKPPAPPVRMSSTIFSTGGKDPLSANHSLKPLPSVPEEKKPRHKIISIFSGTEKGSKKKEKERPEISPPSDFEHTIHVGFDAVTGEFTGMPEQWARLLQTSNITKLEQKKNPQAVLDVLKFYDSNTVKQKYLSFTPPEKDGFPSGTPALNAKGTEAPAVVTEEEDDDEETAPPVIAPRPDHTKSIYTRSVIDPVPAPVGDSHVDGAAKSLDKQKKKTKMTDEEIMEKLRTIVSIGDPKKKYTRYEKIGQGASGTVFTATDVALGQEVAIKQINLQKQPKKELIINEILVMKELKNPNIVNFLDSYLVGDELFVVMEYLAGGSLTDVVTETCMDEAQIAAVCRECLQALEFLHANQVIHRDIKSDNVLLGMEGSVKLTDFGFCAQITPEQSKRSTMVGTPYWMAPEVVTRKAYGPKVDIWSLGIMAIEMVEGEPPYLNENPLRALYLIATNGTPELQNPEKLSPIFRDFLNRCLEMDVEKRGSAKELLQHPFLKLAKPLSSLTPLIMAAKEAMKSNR
T14 sequence (P12931 whole entry): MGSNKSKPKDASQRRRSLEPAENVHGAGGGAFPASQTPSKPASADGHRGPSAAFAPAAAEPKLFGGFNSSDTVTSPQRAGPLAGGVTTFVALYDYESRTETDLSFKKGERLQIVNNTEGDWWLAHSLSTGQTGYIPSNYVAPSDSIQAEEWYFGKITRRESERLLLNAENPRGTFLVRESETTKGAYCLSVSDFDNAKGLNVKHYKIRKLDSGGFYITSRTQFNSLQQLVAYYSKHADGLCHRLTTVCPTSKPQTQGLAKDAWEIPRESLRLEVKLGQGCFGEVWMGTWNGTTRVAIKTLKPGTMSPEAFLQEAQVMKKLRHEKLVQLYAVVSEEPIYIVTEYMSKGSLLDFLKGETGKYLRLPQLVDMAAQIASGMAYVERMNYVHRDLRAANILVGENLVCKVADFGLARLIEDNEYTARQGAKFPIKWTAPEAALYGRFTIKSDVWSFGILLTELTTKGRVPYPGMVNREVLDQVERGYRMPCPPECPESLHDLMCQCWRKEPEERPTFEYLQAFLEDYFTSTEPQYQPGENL
FGFR1(h), sequence (P11362 whole entry): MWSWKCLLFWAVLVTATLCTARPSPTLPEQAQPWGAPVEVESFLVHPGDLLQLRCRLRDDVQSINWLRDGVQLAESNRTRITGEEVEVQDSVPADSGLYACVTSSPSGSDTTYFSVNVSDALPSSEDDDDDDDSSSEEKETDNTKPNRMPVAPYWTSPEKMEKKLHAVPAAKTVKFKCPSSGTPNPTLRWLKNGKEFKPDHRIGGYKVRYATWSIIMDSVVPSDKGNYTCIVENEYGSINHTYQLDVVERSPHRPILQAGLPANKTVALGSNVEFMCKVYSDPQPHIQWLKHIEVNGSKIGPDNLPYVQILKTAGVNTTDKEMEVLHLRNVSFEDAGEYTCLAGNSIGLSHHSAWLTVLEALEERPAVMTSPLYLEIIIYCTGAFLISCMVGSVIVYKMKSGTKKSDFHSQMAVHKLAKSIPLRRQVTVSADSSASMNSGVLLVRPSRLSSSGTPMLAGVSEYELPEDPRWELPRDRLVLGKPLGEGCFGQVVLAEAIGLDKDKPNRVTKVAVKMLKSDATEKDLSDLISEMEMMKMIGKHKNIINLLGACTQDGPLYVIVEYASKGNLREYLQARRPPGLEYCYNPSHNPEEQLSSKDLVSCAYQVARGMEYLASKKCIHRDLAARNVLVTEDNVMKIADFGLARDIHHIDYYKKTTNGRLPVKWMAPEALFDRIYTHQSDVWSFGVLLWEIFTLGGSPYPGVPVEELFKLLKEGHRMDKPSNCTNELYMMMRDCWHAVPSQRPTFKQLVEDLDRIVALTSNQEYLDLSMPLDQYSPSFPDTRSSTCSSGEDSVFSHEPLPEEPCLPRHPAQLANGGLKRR
T13 sequence (P04629 whole entry): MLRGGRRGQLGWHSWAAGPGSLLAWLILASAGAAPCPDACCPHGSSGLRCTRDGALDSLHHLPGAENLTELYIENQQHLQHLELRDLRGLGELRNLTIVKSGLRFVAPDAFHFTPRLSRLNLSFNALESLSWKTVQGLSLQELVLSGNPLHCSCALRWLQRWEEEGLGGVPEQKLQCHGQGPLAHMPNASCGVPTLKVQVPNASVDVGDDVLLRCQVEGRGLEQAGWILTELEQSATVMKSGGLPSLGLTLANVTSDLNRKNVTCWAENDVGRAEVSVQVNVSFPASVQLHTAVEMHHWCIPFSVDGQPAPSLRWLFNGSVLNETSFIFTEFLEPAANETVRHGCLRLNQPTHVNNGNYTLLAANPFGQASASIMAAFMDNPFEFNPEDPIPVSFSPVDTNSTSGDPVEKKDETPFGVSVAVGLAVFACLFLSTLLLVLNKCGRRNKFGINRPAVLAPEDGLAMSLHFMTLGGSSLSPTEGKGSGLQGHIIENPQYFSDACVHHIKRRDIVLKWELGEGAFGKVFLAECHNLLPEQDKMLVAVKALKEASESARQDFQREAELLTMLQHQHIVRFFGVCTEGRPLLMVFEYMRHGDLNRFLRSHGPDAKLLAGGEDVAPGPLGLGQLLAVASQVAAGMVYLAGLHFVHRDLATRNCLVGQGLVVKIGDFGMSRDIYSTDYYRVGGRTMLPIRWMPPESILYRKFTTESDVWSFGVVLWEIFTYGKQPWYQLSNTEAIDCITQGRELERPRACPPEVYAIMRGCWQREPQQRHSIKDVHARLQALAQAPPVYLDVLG
T4 sequence (O15111 whole entry): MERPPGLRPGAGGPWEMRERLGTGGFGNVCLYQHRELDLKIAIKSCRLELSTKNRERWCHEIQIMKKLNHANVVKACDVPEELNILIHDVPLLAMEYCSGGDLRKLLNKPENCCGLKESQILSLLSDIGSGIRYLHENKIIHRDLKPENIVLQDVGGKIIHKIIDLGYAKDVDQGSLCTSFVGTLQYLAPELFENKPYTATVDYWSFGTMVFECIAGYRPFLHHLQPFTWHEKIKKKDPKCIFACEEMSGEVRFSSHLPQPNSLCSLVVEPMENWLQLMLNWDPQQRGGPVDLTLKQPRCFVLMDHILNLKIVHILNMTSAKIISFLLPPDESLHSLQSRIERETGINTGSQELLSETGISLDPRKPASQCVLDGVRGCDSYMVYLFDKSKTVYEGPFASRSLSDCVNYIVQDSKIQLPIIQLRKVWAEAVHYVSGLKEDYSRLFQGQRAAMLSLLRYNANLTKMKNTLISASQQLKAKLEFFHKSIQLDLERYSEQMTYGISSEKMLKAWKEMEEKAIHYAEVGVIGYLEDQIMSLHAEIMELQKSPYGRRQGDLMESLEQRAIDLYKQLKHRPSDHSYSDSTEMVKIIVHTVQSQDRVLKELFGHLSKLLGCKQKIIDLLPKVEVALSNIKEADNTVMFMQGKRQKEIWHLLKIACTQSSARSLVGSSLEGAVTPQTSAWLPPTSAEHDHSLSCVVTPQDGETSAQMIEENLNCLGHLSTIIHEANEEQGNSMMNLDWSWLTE
CDK1/cyclinB(h), sequence (P06493 whole entry): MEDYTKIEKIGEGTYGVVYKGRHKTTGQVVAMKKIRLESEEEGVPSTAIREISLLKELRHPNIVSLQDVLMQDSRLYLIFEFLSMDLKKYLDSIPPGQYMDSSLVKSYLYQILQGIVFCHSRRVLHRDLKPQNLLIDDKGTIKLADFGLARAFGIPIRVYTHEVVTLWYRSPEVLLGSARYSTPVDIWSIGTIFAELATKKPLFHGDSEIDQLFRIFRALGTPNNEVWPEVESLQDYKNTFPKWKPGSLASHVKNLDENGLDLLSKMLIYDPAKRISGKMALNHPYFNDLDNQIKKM
CDK1/cyclinB(h), sequence (P14635 whole entry partner): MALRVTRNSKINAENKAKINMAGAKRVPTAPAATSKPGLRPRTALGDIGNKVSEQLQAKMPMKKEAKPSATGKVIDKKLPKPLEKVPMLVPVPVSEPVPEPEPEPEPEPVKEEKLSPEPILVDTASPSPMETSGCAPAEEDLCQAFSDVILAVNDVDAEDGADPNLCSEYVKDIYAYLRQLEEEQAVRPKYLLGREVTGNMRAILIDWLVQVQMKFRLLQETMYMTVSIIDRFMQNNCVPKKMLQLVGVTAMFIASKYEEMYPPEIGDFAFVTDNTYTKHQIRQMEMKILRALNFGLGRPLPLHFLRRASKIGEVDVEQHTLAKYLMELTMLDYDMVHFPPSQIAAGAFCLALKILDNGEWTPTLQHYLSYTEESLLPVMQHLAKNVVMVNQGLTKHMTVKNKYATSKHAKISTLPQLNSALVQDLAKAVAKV

Structure (SMILES): Cc1ncsc1-c1ccc([C@H](C)NC(=O)[C@@H]2C[C@@H](O)CN2C(=O)[C@@H](NC(=O)CNC(=O)c2ccc(F)c(-c3ccc(N4C[C@@H](C)N(C)[C@@H](C)C4)c(NC(=O)c4c[nH]c(=O)cc4C(F)(F)F)c3)c2)C(C)(C)C)cc1 [MS67]
- remaining activity at 1 µM (CDK1/cyclinB(h)): 94%
- remaining activity at 1 µM (CHK1(h)): 78%
- remaining activity at 1 µM (CHK2(h)): 97%
- remaining activity at 1 µM (CaMKIIα(h)): 92%
- remaining activity at 1 µM (EGFR(h)): 101%
- remaining activity at 1 µM (EphA2(h)): 80%
- remaining activity at 1 µM (EphA3(h)): 125%
- remaining activity at 1 µM (EphB4(h)): 150%
- remaining activity at 1 µM (FGFR1(h)): 105%
- remaining activity at 1 µM (FGFR2(h)): 84%
- remaining activity at 1 µM (IKKα(h)): 96%
- remaining activity at 1 µM (IR(h)): 87%
- remaining activity at 1 µM (JAK3(h)): 100%
- remaining activity at 1 µM (JNK1α1(h)): 104%
- remaining activity at 1 µM (MAPKAP-K2(h)): 104%
- remaining activity at 1 µM (Met(h)): 88%
- remaining activity at 1 µM (PAK2(h)): 89%
- remaining activity at 1 µM (PAK4(h)): 95%
- remaining activity at 1 µM (PDK1(h)): 110%
- remaining activity at 1 µM (PKCβII(h)): 112%
- remaining activity at 1 µM (Pim-2(h)): 99%
- remaining activity at 1 µM (SIK(h)): 84%
- remaining activity at 1 µM (TAO2(h)): 95%
- remaining activity at 1 µM (TrkA(h)): 94%
- remaining activity at 1 µM (cSRC(h)): 96%
